Measurements as given in paper PMC8390638, “Termitomenins F and G, Two New Lignan Glucosides from Terminalia chebula var. tomentella (Kurz) C. B. Clarke” (Natural Products and Bioprospecting, 2021).

Molecular target: α-glucosidase
Experiment: α-glucosidase inhibitor screening assay (PNPG substrate, absorbance at 405 nm)
Format: biochemical
Conditions: means ± SD (n = 3), phosphate buffer pH 6.8, 37 °C, 1 h, Reed and Muench method, read-out: IC50 (one-half maximal inhibitory concentration to α-glucosidase)
Description: The α-glucosidase inhibitor screening assay was conducted as reported previously and slightly modified. […] 4-Nitrophenol-α-D-glucopyranoside (PNPG) was used as an enzyme inhibitor screening model. α-glucosidase solution (0.025 U·mL^−1), PNPG (0.1 M), phosphate buffer (pH 6.8) and test samples (50 μM) were incubated in 96-well plates at 37 °C for 1 h. A microplate reader was recorded by the absorbance at 405 nm. No enzyme as the blank readings were subtracted from each well and compared to the control. In this assay, all reactions were performed in triplicate. The α-glucosidase inhibitory activity was presented as inhibition ratio. The formula to calculate the inhibition rate is as follows: inhibition rate (%) = (1 ‒ OD experimental 405 nm/OD […] 405 nm) × 100%, and IC50 values were calculated according to the Reed and Muench method.

Structure (SMILES)	IC50 [µM]
O=C1O[C@H]2[C@@H]3OC(=O)c4cc(O)c(O)c(O)c4-c4c(O)c(O)c5oc(=O)c6c(c(O)c(O)c7oc(=O)c4c5c76)-c4c(cc(O)c(O)c4O)C(=O)OC[C@H]3OC(O)[C@@H]2OC(=O)c2cc(O)c(O)c(O)c2-c2c1cc(O)c(O)c2O (mixture of isomers) [Compound 10, punicalagin]	0.27 ± 0.01
O=C(OC[C@H]1O[C@@H](OC(=O)c2cc(O)c(O)c(O)c2)[C@H](O)[C@@H](OC(=O)c2cc(O)c(O)c(O)c2)[C@@H]1O)c1cc(O)c(O)c(O)c1 [Compound 11, 1,3,6-tri-O-galloyl-β-D-glucopyranose]	2.28 ± 0.07
O=C(OC[C@H]1O[C@@H](OC(=O)c2cc(O)c(O)c(O)c2)[C@H](OC(=O)c2cc(O)c(O)c(O)c2)[C@@H](OC(=O)c2cc(O)c(O)c(O)c2)[C@@H]1OC(=O)c1cc(O)c(O)c(O)c1)c1cc(O)c(O)c(O)c1 [Compound 12, 1,2,3,4,6-penta-O-galloyl-β-D-glucopyranose]	0.1 ± 0.01
O=C(O[C@@H]1O[C@@H]2COC(=O)c3cc(O)c(O)c(O)c3-c3c(cc(O)c(O)c3O)C(=O)O[C@H]([C@H]1O)[C@@H]2O)c1cc(O)c(O)c(O)c1 [Compound 13, corilagin]	3.12 ± 0.23
